The values that follow come from patent US9006208B2, “Agent for treatment of dry eye characterized by combining P2Y2 receptor agonist and hyaluronic acid or salt thereof, method for treating dry eye, and use of the P2Y2 receptor agonist and hyaluronic acid or salt thereof” (Santen Pharmaceutical Co., Ltd., priority 2010, dated 2015).

The test system of one test is rabbits. The note with it: Current Eye Research 21(4), 782-787 (2000); cited from earlier work.
The subject of test [1] is rat model from which an exorbital lacrimal gland is excised, additionally applied airflow (corneal epithelial disorder). As to the kind of experiment: Pharmacological Test 2: corneal fluorescein staining score in rat dry eye model (exorbital lacrimal gland excised plus airflow). The note with it: 5 μL into both eyes 6 times per day for 6 weeks; 3% diquafosol sodium, 0.1% sodium hyaluronate; compared with non-administered group; FIG. 2. The class given is in vivo. From the text: A rat model from which an exorbital lacrimal gland is excised therefrom has been generally used as a model for evaluating therapeutic effects on corneal epithelial disorders induced by dry eye, and has also been used as a model for evaluating therapeutic effects of P2Y2 receptor agonists (Invest. Ophthalmol. Vis. Sci., 42(1), 96-100 (2001)). Using a dry eye model which is additionally applied airflow to the rat model, it was examined whether or not an improvement effect on corneal epithelial disorders could be achieved by the administration of a P2Y2 receptor agonist at a therapeutically effective concentration and hyaluronic acid or a salt thereof at a therapeutically effective concentration in combination. […]
Six weeks after the initiation of the instillation into eyes, an affected part of the cornea was stained with fluorescein, and the occurrence of the corneal epithelial disorder was determined in accordance with the method by Murakami et al. (Journal of the Eye (Atarashii Ganka), 21(1), 87-90 (2004)). That is, with respect to each of an upper part, an intermediate part and a lower part of the cornea, scores of the degree of staining with fluorescein were determined in accordance with the criteria mentioned below, and the average value of the sum total of the scores was calculated. […]

For test [2] the following is noted: clinical tests; Cornea 23(8), 784-792 (2004); cited from earlier work.
Test [3] deals with normal male white rabbits. The test can be described thus: Pharmacological Test 1: change in tear meniscus area after ocular instillation (3% diquafosol sodium, 0.1% sodium hyaluronate). The note with it: 50 μL instilled once, FIG. 1. The class given is in vivo, rabbit. On the procedure:
The change in the tear fluid volume can be evaluated by measuring the value of a tear meniscus area stained with a fluorescein solution (Exp. Eye. Res., 78(3), 399-407 (2004)). Then, the time course of a change in the tear meniscus area value after the sequential administration of diquafosol sodium, which is a P2Y2 receptor agonist, and sodium hyaluronate to eyes was evaluated in accordance with the method of Murakami et al. (Ophthalmic Res., 34, 371-374 (2002)), using normal male white rabbits. […]
A 0.1% fluorescein solution (3 μL) was administered onto a tear meniscus of the lower eyelid of each of normal male white rabbits (40 eyes of 20 rabbits in total), and a photograph of the tear meniscus that was stained with fluorescein accumulated in the eyelid was taken. The area of the stained tear meniscus part in the photograph was calculated using image analysis software, and the resultant value was employed as a baseline. […]
The change in the tear meniscus area before and after the administration of each of the drugs was calculated as “Δ tear meniscus area value”. […]

Test [4] relates to normal male white rabbits. The test can be described thus: Pharmacological Test 3: change in tear meniscus area (3% diquafosol sodium, 0.002% sodium hyaluronate). The class given is in vivo, rabbit. The note with it: 35 minutes after administration, 50 μL, combination: hyaluronate 5 min after diquafosol. On the procedure:
For the purpose of examining as to whether or not an increase in tear meniscus area values is observed when a P2Y2 receptor agonist at a therapeutically effective concentration is combined with hyaluronic acid or a salt thereof at a concentration which is employed as an additive, the time course of a change in the tear meniscus area value after the sequential ocular instillation of the 3% diquafosol sodium and the 0.002% sodium hyaluronate was evaluated in the same manner as in Pharmacological test 1.
A 3% diquafosol sodium ophthalmic solution was prepared in the same manner as in the above-mentioned Pharmacological test 1. A 0.002% sodium hyaluronate ophthalmic solution was prepared by diluting “Hyalein® ophthalmic solution 0.3%” manufactured and sold by Santen Pharmaceutical Co., Ltd. with physiological saline.
With respect to normal male white rabbits (24 eyes of 12 rabbits in total), a photograph of a tear meniscus before the administration of a drug was taken in the same manner as in pharmacological test 1. […]
(§1) The change in the tear meniscus area before and after the administration of each of the drugs was calculated as a “Δ tear meniscus area value”.

Test [5] has as its system normal male white rabbits. The test can be described thus: Pharmacological Test 4: change in tear meniscus area (3% diquafosol sodium, 0.3% sodium hyaluronate). The class given is in vivo, rabbit. Conditions: after 35 minutes, 50 μL, combination: hyaluronate 5 min after diquafosol. On the procedure:
The time course of a change in tear meniscus area values after the sequential instillation of 3% diquafosol sodium and 0.3% sodium hyaluronate into eyes was evaluated in the same manner as in Pharmacological test 1.
A 3% diquafosol sodium ophthalmic solution was prepared in the same manner as in the above-mentioned Pharmacological test 1. “Hyalein® ophthalmic solution 0.3%” manufactured and sold by Santen Pharmaceutical Co., Ltd. was used as a 0.3% sodium hyaluronate ophthalmic solution.
With respect to each of normal male white rabbits (18 eyes of 9 rabbits in total), a photograph of a tear meniscus was taken before the administration of each of the drug in the same manner as in Pharmacological test 1. […]
as §1

Regarding `O=c1ccn([C@@H]2O[C@H](COP(=O)(O)OP(=O)(O)OP(=O)(O)O)[C@@H](O)[C@H]2O)c(=O)[nH]1` [UTP, Uridine 5′-triphosphate], the secretion of tear entry in the test on rabbits was “can promote the secretion of tear in rabbits”.
With `Nc1ncnc2c1ncn2[C@@H]1O[C@H](COP(=O)(O)OP(=O)(O)OP(=O)(O)O)[C@@H](O)[C@H]1O` [ATP, Adenosine 5′-triphosphate], the secretion of tear result in the test on rabbits was “can promote the secretion of tear in rabbits”.
As for `O=c1ccn([C@@H]2O[C@H](COP(=O)(O)OP(=O)(O)OP(=O)(O)OP(=O)(O)OC[C@H]3O[C@@H](n4ccc(=O)[nH]c4=O)C(O)[C@H]3O)[C@H](O)C2O)c(=O)[nH]1` (stereo partly drawn) [Diquafosol, P^1,P^4-bis(5′-uridyl)tetraphosphate], the “fluorescein staining scores of the cornea” value in test [1] was “the tendency of improvement in fluorescein staining scores was observed, the improvement that can be considered as being statistically significant was not observed”. Besides, in test [2], the keratoconjunctival epithelial disorders entry is given as “ameliorated keratoconjunctival epithelial disorders”. Moreover, the secretion of tear result in test [2] was “promoted the secretion of tear”. Further, the “Δ tear meniscus area value” is on record as “increase in the tear meniscus area value was observed” in test [3] (10 minutes after administration (of the first agent)), “increase in the tear meniscus area value was observed” in test [3] (35 minutes after administration (of the first agent)), 1 .127 mm^2 in test [4] and 1.434 mm^2 in test [5].
